# From US9986723B2, “Screen and use of therapeutics for pancreatic ductal adenocarcinoma” (The Board of Regents of the University of Texas System, priority 2014, dated 2018)
# Assays:
# Pan02 tumors = assay: Low dose warfarin in drinking water, syngenic orthotopic model; format: in vivo, mouse; details: warfarin 0.5 mg/L drinking water
# Description: (§1) (FIG. 23A) Primary tumor burden after therapy with warfarin. Therapy was initiated when implanted tumors were visible by ultrasound (˜10 mm^3) and consisted of control (normal drinking water) or warfarin, administered in the drinking water at 0.5 mg/L (immunocompetent mice: Pan02 (n=4, control; 3, warfarin), KIC (n=10, control; 8, warfarin)) or 1 mg/L (Panc-1 (n=10, control; 8, warfarin), AsPC-1 (n=8, control; 6, warfarin), Capan-1 (n=10, control; 7, warfarin)) and continued for 2-4 weeks until control mice were moribund. Therapy in KIC mice was initiated at 3 weeks of age and continued for 4 weeks. (FIG. 23B) Metastases were determined grossly upon sacrifice and confirmed by histological evaluation of the liver. […] Incidence of metastasis is also indicated. […] Tumor volume determined by serial ultrasound. […] Therapy with mAb 10C9 (250 μg 2×/week) was initiated when tumors were established as above and persisted for 4 weeks. […] Error bars indicate s.e.m.
# Animal studies. […] Mice with established tumors, as determined by sonography were randomized to receive normal drinking water or water containing 1 mg/L (˜3.0 μM) warfarin for experiments in immunocompromised mice and 0.5 mg/L (˜1.5 μM) in experiments in immunocompetent animals with or without gemcitabine 25 mg/kg twice weekly depending on experimental design.
# Gas6 = Gas6 γ-carboxylation in conditioned media of HEK293 cells expressing recombinant Gas6 (immunoblot); format: cell-based; details: Vitamin K + warfarin, in vitro
# Description: (§2) (FIG. 24A) HEK293 cells engineered to stably express recombinant Gas6 were grown in the presence of Vitamin K or Vitamin K+warfarin. Gas6 levels and γ-carboxylation were assayed by immunoblotting conditioned media. Conditioned media from untransfected HEK293 cells was used as a negative control. (FIG. 24B) Panc1 cells were grown overnight in media with 1% serum with no additions (NT), warfarin (2 μM) or BGB324 (2 μM). Lysates were probed for total Axl (tAxl) and phosphorylated Axl (pAxl). (FIG. 24C) Panc1 cells were grown in the presence of control media, Vitamin K, warfarin or warfarin+Vitamin K. The level of phosphorylated Axl (pAXL, red) was determined by immunofluorescence. (FIG. 24D) Panc1 cells were grown overnight in media with 1% serum with no additions (control), warfarin (1 μM), Gas6 (1.3 nM) or Gas6+warfarin. Lysates were probed for phosphorylated Akt (pAkt) and actin. (FIG. 24E) Lysates from Panc1 tumors harvested from mice treated with control or warfarin were probed for expression of tAxl, pAxl, actin, pAKT, tAKT, and cleaved Parp. (FIG. 24F) The effect of warfarin on cell migration was assessed by a ‘scratch’ assay. Monolayers of the indicted cells were wounded with a pipet tip. The cells were incubated in media containing 2% serum+/−warfarin (2 μM) or media containing 2% serum+Gas6 (1.3 nM)+/−warfarin.
# Panc-1 tumors = assay: Low dose warfarin in drinking water, orthotopic human tumor xenograft; format: in vivo, mouse
# Description: as §1, §2
# FIGS. 26A-C. […] (FIG. 26A) the expression level of pAxl, Zeb1 and nuclear β-catenin in Panc1 cells in vitro was measured by immunofluorescence under normal culture conditions or after growth on collagen matrix and treatment with TGF-β (20 ng/ml) to induce epithelial to mesenchymal transition, with or without warfarin (2 μM). p-Axl was normalized to total Axl area. (FIG. 26B) Panc1 cells were treated with either SFM, recombinant Gas 6 (100 ng/ml) or Gas6 following pretreatment with 10C9 (mAb anti-Axl). Transition to a mesenchymal phenotype was characterized by changes in vimentin and nuclear Zeb1 expression determined by immunofluoresence. […] (FIG. 26C) Paraffin embedded sections of Panc-1 tumors were analyzed by immunofluorescence for markers of EMT.
# [1] = tumor lysates, low dose warfarin
# [2] = tumor sections, low dose warfarin
structure (smiles),measurement,setting,value
CC(=O)CC(c1ccccc1)c1c(O)c2ccccc2oc1=O (racemic) [Warfarin],primary tumor growth,Pan02 tumors,reduced primary tumor growth
same,γ-carboxylation of Gas6,Gas6,prevented
same,intratumoral microvessel density,"Panc-1 tumors; Endomucin, low dose warfarin",reduced
same,expression of vimentin and E-cadherin in tumors,"Panc-1 tumors; immunofluorescence, low dose warfarin",reduced expression of vimentin and elevated the expression of E-cadherin
same,level of cleaved Parp,Panc-1 tumors; [1],increased
same,level of pAxl and pAkt in tumors,Panc-1 tumors; [1],substantially suppressed
same,cleaved caspase 3 and tumor necrosis,Panc-1 tumors; [2],elevated
same,expression of phosphorylated histone H3 (proliferation),Panc-1 tumors; [2],decreased
same,primary tumor growth,Panc-1 tumors; warfarin 1 mg/L drinking water,little effect
